Experimental data taken from paper PMC8956739, “A synthetic lipopeptide targeting top-priority multidrug-resistant Gram-negative pathogens” (Nature Communications, 2022).
≈ marks a conversion by molar mass, not a printed value. Where “and” joins values, the source holds several entries; their conditions need not be identical. Identical values can stand only once. Like-named read-outs stand apart in the source and are kept apart here. Residues, ends and D or L forms follow the SMILES beside them.

Columns and labels:
A. baumannii AB5075 [1] = assay: In vitro passaging, emergence of resistance; format: cell-based, Acinetobacter baumannii; details: for OD600: 8 ug/mL
Procedure: Log-phase cultures (OD600 = 0.5, ~10^8 CFU/mL) of A. baumannii AB5075 were inoculated (1:10, v/v) in 200 μL fresh CaMHB (cation-adjusted Mueller–Hinton broth) containing 2, 8 and 16 μg/mL polymyxin B, colistin, F287, and F365 in a 96-well microplate with 4 biological replicates. The cultures were incubated at 37 °C for 12 h before the next dilution (1:10, v/v) with fresh CaMHB. Successive subculturing was conducted for 7 days.

A. baumannii FADDI-AB030 = format: cell-based, Acinetobacter baumannii; details: FADDI-AB030
Method in brief: (§1)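 Broth microdilution, CaMHB; MIC read as the antibacterial endpoint against ATCC reference strains and clinical isolates.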

A. baumannii AB5075 [2] = format: cell-based, Acinetobacter baumannii; details: AB5075
Method in brief: as §1

A. baumannii FADDI-AB034 = format: cell-based, Acinetobacter baumannii; details: FADDI-AB034
Method in brief: as §1

A. baumannii ATCC 19606 = format: cell-based, Acinetobacter baumannii; details: ATCC 19606
Method in brief: as §1

P. aeruginosa ATCC 27853 = assay: Neutropenic mouse bloodstream infection model; format: in vivo; details: single IV dose 4 mg/kg; for Log10 CFU/mL blood at 4 h, Mean / Δlog10 CFU/mL blood (mean) / Log10 CFU/mL blood at 4 h, single mouse: 4 h; for Δlog10 CFU/mL blood (mean): treated minus control, mean of replicates; for Δlog10 CFU/mL blood (mean) / Log10 CFU/mL blood at 4 h, single mouse / Delta Log10 CFU/mL blood at 4 h, single mouse: 4 mg/kg; for Delta Log10 CFU/mL blood at 4 h, single mouse: treated mouse minus mean of vehicle mice
Method in brief: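 Female Swiss mice made neutropenic with cyclophosphamide (150 mg/kg day −4, 100 mg/kg day −1), infected IV with 50 µL of 4 × 10^8 CFU/mL. Lipopeptide 4 mg/kg (free base) IV at 2 h post-inoculation, n = 3. Efficacy = Δlog10 CFU/mL blood versus saline at 4 h post-dose.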

HK-2 cells = assay: Transcriptomic analysis (RNA-Seq) of kidney cells; format: cell-based, human; details: for logFC, differential gene expression for all genes / log2FC / Fold Change: HK-2 RNA-Seq; for log2FC: Fig. 5f; for Fold Change: Fig. 5e; for num.of.degs: number of differentially expressed genes per peptide, Fig. 6a
Procedure: Human Kidney-2 (HK-2) cells (CRL-2190™, American Type Culture Collection) were treated with 100 μM colistin, F287, F319, and F365 for 24 h. Previous transcriptomic data of HK-2 cells following 24 h treatment with polymyxin B[26] were also employed for comparative bioinformatic analysis. RNA extraction was conducted as described above. Raw reads were aligned to genome GRCh38.94 (Ensembl genome database, http://ftp.ensembl.org/pub/release-94/fasta/homo_sapiens/dna/) using […] and summarized by featureCounts. Differentially expressed genes were determined using limma 3.46.0, with a combination of fold change ≥ 1.5 and FDR (by Benjamini–Hochberg algorithm) adjusted P-value ≤ 0.05 (n = 3). Key regulatory genes of HK-2 were analyzed in the context of signaling network in the Signor 2.0 database. Enrichment analysis of gene differential expression in HK-2 cells was conducted using enrichR 2.1. UpSetR 1.4.0, ComplexHeatmap 2.6.2, circlize 0.4.13 and iGraph 1.2.11 were used for data visualization. Raw data were deposited in the Short Reads Archive database under accession numbers SRR15239061-SRR15239078.

[3] = Cell viability after 24 h treatment; format: cell-based, human; details: human, KCNJ16 knockout HK-2 cells (kidney proximal tubular), Cell viability, KCNJ16 KO, KCNJ16 knockout HK-2 cells, 24 h, Fig. 6b
Procedure: Fig. 6 Transcriptomic changes in human kidney proximal tubular HK-2 cells following treatments with polymyxin B (PMB), colistin (COL), F287, F319, and F365. a Numbers of differentially expressed genes. Distinctive intersections are color-coded. b Cell viability difference (two-tailed Student’s t-test, n = 4 biologically independent cells, Benjamini–Hochberg adjusted P-values) between wild-type HK-2 and KCNJ16 knockout (KO) cells following 24 h treatment with lipopeptides. n.s., not significant; ^*adjusted P < 0.05, ^**adjusted P < 0.01, ^***adjusted P < 0.001. Data are shown as mean ± s.d. and individual data points. c Extracted transcriptional regulatory network from Signor database with 1-step neighbor constraints (enlarged for detail). Source data are provided as a Source Data file.

[4] = locus chr1 629640-630683 (ENSG00000225630 by coordinates)
[5] = Rep1, replicate 1, read-out: Cell viability, KCNJ16 KO, Rep1
[6] = Rep2, replicate 2, read-out: Cell viability, KCNJ16 KO, Rep2
[7] = Rep3, replicate 3, read-out: Cell viability, KCNJ16 KO, Rep3
[8] = Rep4, replicate 4, read-out: Cell viability, KCNJ16 KO, Rep4

Structure (SMILES): CCCCCCCC(=O)N[C@@H](CCN)C(=O)N[C@H](C(=O)N[C@@H](CN)C(=O)N[C@H]1CCNC(=O)[C@H]([C@@H](C)O)NC(=O)[C@H](CCN)NC(=O)[C@H](CCN)NC(=O)[C@H](CC)NC(=O)[C@@H](CC(C)C)NC(=O)[C@H](CCN)NC1=O)[C@@H](C)O [Lipopeptide F287] (HELM PEPTIDE1{[CCCCCCCC(=O)[*:2]].[Dab].T.[NC[C@H](N[*:1])C(=O)[*:2]].[Dab].[Dab].[dL].[Abu].[Dab].[Dab].T}$PEPTIDE1,PEPTIDE1,5:R3-11:R2$$$V2.0)
- OD600 (A. baumannii AB5075 [1]; time 0 h, passage 0, replicates rep1-rep4, raw OD600 (blank OD600 0.125333)): 0.15 and 0.135 and 0.14
- OD600 (A. baumannii AB5075 [1]; time 12 h, passage 1, replicates rep1-rep4, raw OD600 (blank OD600 0.114667)): 0.134 and 0.126 and 0.13 and 0.129
- OD600 (A. baumannii AB5075 [1]; time 24 h, passage 2, replicates rep1-rep4, raw OD600 (blank OD600 0.0956667)): 0.091 and 0.089 and 0.086
- OD600 (A. baumannii AB5075 [1]; time 36 h, passage 3, replicates rep1-rep4, raw OD600 (blank OD600 0.088)): 0.088 and 0.089 and 0.095
- OD600 (A. baumannii AB5075 [1]; time 48 h, passage 4, replicates rep1-rep4, raw OD600 (blank OD600 0.104667)): 0.095 and 0.092 and 0.093 and 0.111
- OD600 (A. baumannii AB5075 [1]; time 60 h, passage 5, replicates rep1-rep4, raw OD600 (blank OD600 0.122333)): 0.105 and 0.107 and 0.117
- OD600 (A. baumannii AB5075 [1]; time 72 h, passage 6, replicates rep1-rep4, raw OD600 (blank OD600 0.095)): 0.097 and 0.09 and 0.087
- OD600 (A. baumannii AB5075 [1]; time 84 h, passage 7, replicates rep1-rep4, raw OD600 (blank OD600 0.091)): 0.094 and 0.097 and 0.099 and 0.113
- OD600 (A. baumannii AB5075 [1]; time 96 h, passage 8, replicates rep1-rep4, raw OD600 (blank OD600 0.0953333)): 0.111 and 0.113 and 0.11 and 0.117
- OD600 (A. baumannii AB5075 [1]; time 108 h, passage 9, replicates rep1-rep4, raw OD600 (blank OD600 0.100667)): 0.115 and 0.107 and 0.116
- OD600 (A. baumannii AB5075 [1]; time 120 h, passage 10, replicates rep1-rep4, raw OD600 (blank OD600 0.0983333)): 0.108 and 0.113 and 0.118
- OD600 (A. baumannii AB5075 [1]; time 132 h, passage 11, replicates rep1-rep4, raw OD600 (blank OD600 0.0843333)): 0.121 and 0.108 and 0.118 and 0.122
- OD600 (A. baumannii AB5075 [1]; time 144 h, passage 12, replicates rep1-rep4, raw OD600 (blank OD600 0.091)): 0.116 and 0.114 and 0.12
- OD600 (A. baumannii AB5075 [1]; time 156 h, passage 13, replicates rep1-rep4, raw OD600 (blank OD600 0.129)): 0.118 and 0.12 and 0.113 and 0.116
- OD600 (A. baumannii AB5075 [1]; time 168 h, passage 14, replicates rep1-rep4, raw OD600 (blank OD600 0.101)): 0.096 and 0.095 and 0.092 and 0.117
- time to emergence of resistance (A. baumannii AB5075 [1]; 4× MIC, 7-day passaging): ≤ 3 days
- growth over 7 days (A. baumannii AB5075 [1]; 32× MIC): No growth
- MIC A. baumannii FADDI-AB030 (A. baumannii FADDI-AB030): 0.25 µg/mL (≈ 0.225 µM)
- MIC A. baumannii AB5075 (A. baumannii AB5075 [2]): 0.5 µg/mL (≈ 0.449 µM)
- MIC A. baumannii FADDI-AB034 (A. baumannii FADDI-AB034): <0.125 µg/mL
- MIC A. baumannii ATCC 19606 (A. baumannii ATCC 19606): 0.25 µg/mL (≈ 0.225 µM)
- Log10 CFU/mL blood at 4 h, Mean (P. aeruginosa ATCC 27853): 5.02 Log10 CFU/mL blood
- Δlog10 CFU/mL blood (mean) (P. aeruginosa ATCC 27853): −2.42 log10 CFU/mL blood
- Log10 CFU/mL blood at 4 h, single mouse (P. aeruginosa ATCC 27853): 5.21 Log10 CFU/mL blood and 4.68 Log10 CFU/mL blood and 5.18 Log10 CFU/mL blood
- Delta Log10 CFU/mL blood at 4 h, single mouse (P. aeruginosa ATCC 27853): -2.23 Log10 CFU/mL blood and -2.77 Log10 CFU/mL blood and -2.27 Log10 CFU/mL blood
- logFC, differential gene expression for all genes (HK-2 cells; Geneid ENSG00000223972): -1.073
- logFC, differential gene expression for all genes (HK-2 cells; Geneid ENSG00000227232): -0.08434
- logFC, differential gene expression for all genes (HK-2 cells; Geneid ENSG00000233750): -0.6124
- logFC, differential gene expression for all genes (HK-2 cells; Geneid ENSG00000278267): 0.2137
- log2FC (HK-2 cells; gene ENSG00000017483 SLC38A5): 0.6808
- log2FC (HK-2 cells; gene ENSG00000023445 BIRC3): -0.3448
- log2FC (HK-2 cells; gene ENSG00000056558 TRAF1): 0.757
- log2FC (HK-2 cells; gene ENSG00000066468 FGFR2): -1.141
- Fold Change (HK-2 cells; locus chr1 629062-629433 (ENSG00000225972 by coordinates)): 0.9117
- Fold Change (HK-2 cells; [4]): 0.9406
- num.of.degs (HK-2 cells): 1076
- viability at 24 h [3, 5]: 91.7%
- viability at 24 h [3, 6]: 77.1%
- viability at 24 h [3, 7]: 82.8%
- viability at 24 h [3, 8]: 69.6%

Structure (SMILES): CCCCCCCC(=O)N[C@@H](CCN)C(=O)N[C@H](C(=O)N[C@@H](CCN)C(=O)N[C@H]1CCNC(=O)[C@H]([C@@H](C)O)NC(=O)[C@H](CCN)NC(=O)[C@H](CCN)NC(=O)[C@H](CC)NC(=O)[C@@H](CC(C)C)NC(=O)[C@H](CCN)NC1=O)[C@@H](C)O [Lipopeptide F319] (HELM PEPTIDE1{[CCCCCCCC(=O)[*:2]].[Dab].T.[Dab].[Dab].[Dab].[dL].[Abu].[Dab].[Dab].T}$PEPTIDE1,PEPTIDE1,5:R3-11:R2$$$V2.0)
- MIC A. baumannii FADDI-AB030 (A. baumannii FADDI-AB030): 0.5 µg/mL (≈ 0.443 µM)
- MIC A. baumannii FADDI-AB034 (A. baumannii FADDI-AB034): <0.125 µg/mL
- MIC A. baumannii ATCC 19606 (A. baumannii ATCC 19606): 0.5 µg/mL (≈ 0.443 µM)
- Log10 CFU/mL blood at 4 h, Mean (P. aeruginosa ATCC 27853): 4.01 Log10 CFU/mL blood
- Δlog10 CFU/mL blood (mean) (P. aeruginosa ATCC 27853): −3.44 log10 CFU/mL blood
- Log10 CFU/mL blood at 4 h, single mouse (P. aeruginosa ATCC 27853): 3.87 Log10 CFU/mL blood and 4.06 Log10 CFU/mL blood and 4.10 Log10 CFU/mL blood
- Delta Log10 CFU/mL blood at 4 h, single mouse (P. aeruginosa ATCC 27853): -3.57 Log10 CFU/mL blood and -3.38 Log10 CFU/mL blood and -3.35 Log10 CFU/mL blood
- logFC, differential gene expression for all genes (HK-2 cells; Geneid ENSG00000223972): -0.1551
- logFC, differential gene expression for all genes (HK-2 cells; Geneid ENSG00000227232): -0.02116
- logFC, differential gene expression for all genes (HK-2 cells; Geneid ENSG00000233750): -0.4424
- logFC, differential gene expression for all genes (HK-2 cells; Geneid ENSG00000278267): 0.1872
- log2FC (HK-2 cells; gene ENSG00000017483 SLC38A5): 0.557
- log2FC (HK-2 cells; gene ENSG00000023445 BIRC3): -0.6344
- log2FC (HK-2 cells; gene ENSG00000056558 TRAF1): 0.7378
- log2FC (HK-2 cells; gene ENSG00000066468 FGFR2): -1.084
- Fold Change (HK-2 cells; [4]): 0.3467
- Fold Change (HK-2 cells; locus chr1 632757-633438 (ENSG00000229344 by coordinates)): 0.6059
- num.of.degs (HK-2 cells): 763
- viability at 24 h [3, 5]: 104%
- viability at 24 h [3, 6]: 95.5%
- viability at 24 h [3, 7]: 91.1%
- viability at 24 h [3, 8]: 92.6%
